Data published in PubChem BioAssay (NCI).
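1) Cells in 96-well plates. 2) Compound, 48 h, 5 concentrations. 3) Linear interpolation between surrounding doses. 4) Unreached endpoint = highest concentration. GI50 marks 50% less growth. Definition used: TGI = concentration required for complete inhibition of growth.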

How the values were obtained:
Assay in all cases: NCI-60 cell line screen, 48 h
[1] = system: 786-0 renal
[2] = system: A498 renal
[3] = system: A549 NSCLC
[4] = system: ACHN renal
[5] = system: BT-549 breast
[6] = system: CAKI-1 renal
[7] = system: CCRF-CEM leukemia
[8] = system: COLO 205 colon
[9] = system: DU-145 prostate
[10] = system: EKVX NSCLC
[11] = system: HCC-2998 colon
[12] = system: HCT-116 colon
[13] = system: HCT-15 colon
[14] = system: HL-60(TB) leukemia
[15] = system: HOP-62 NSCLC
[16] = system: HOP-92 NSCLC
[17] = system: HS 578T breast
[18] = system: HT29 colon
[19] = system: IGROV1 ovarian
[20] = system: K-562 leukemia
[21] = system: KM12 colon
[22] = system: LOX IMVI melanoma
[23] = system: M14 melanoma
[24] = system: MALME-3M melanoma
[25] = system: MCF7 breast
[26] = system: MDA-MB-231 breast
[27] = system: MDA-MB-435
[28] = system: MDA-MB-468 breast
[29] = system: MOLT-4 leukemia
[30] = system: NCI-H226 lung
[31] = system: NCI-H23 lung
[32] = system: NCI-H460 lung
[33] = system: NCI-H522 lung
[34] = system: OVCAR-3 ovarian
[35] = system: OVCAR-4 ovarian
[36] = system: OVCAR-5 ovarian
[37] = system: OVCAR-8 ovarian
[38] = system: PC-3 prostate
[39] = system: RPMI-8226 leukemia
[40] = system: RXF 393 renal
[41] = system: SF-268 CNS
[42] = system: SF-295 CNS
[43] = system: SF-539 CNS
[44] = system: SK-MEL-2 melanoma
[45] = system: SK-MEL-28 melanoma
[46] = system: SK-MEL-5 melanoma
[47] = system: SK-OV-3 ovarian
[48] = system: SN12C renal
[49] = system: SNB-19 CNS
[50] = system: SNB-75 CNS
[51] = system: SR leukemia
[52] = system: SW-620 colon
[53] = system: T-47D breast
[54] = system: TK-10 renal
[55] = system: U251 CNS
[56] = system: UACC-257 melanoma
[57] = system: UACC-62 melanoma
[58] = system: UO-31 renal

With `O=C1Nc2ccc(Cl)cc2/C1=C/c1ccc(OCc2ccc(Br)cc2F)cc1` as the molecule, how does the GI50 [1] read?
The GI50 was 3.06 µM.

And the TGI [1]?
Its TGI is 8.32 µM.

What about the GI50 [2] of the same molecule?
Its GI50 is 2.45 µM.

And the TGI [2]?
Its TGI is 5.42 µM.

And the GI50 [3]?
The GI50 was 3.25 µM.

What about the TGI [3] of the same molecule?
Its TGI is 11.3 µM.

What about the GI50 [4] of the same molecule?
The GI50 was 2.19 µM.

And the TGI [4]?
Its TGI is 5.29 µM.

And the GI50 [5]?
Its GI50 is 9.48 µM.

What about the TGI [5] of the same molecule?
The TGI was 26.8 µM.

And the GI50 [6]?
Its GI50 is 2.05 µM.

And the TGI [6]?
The TGI was 7.06 µM.

What about the GI50 [7] of the same molecule?
The GI50 was 4.55 µM.

And the TGI [7]?
The TGI was 17.7 µM.

And the GI50 [8]?
The GI50 was 9.18 µM.

What about the TGI [8] of the same molecule?
The TGI was 37.5 µM.

And the GI50 [9]?
The GI50 was 10.2 µM.

And the TGI [9]?
The TGI was 26.6 µM.

And the GI50 [10]?
Its GI50 is 4.51 µM.

What about the TGI [10] of the same molecule?
Its TGI is 22.1 µM.

What about the GI50 [11] of the same molecule?
Its GI50 is 20.5 µM.

And the TGI [11]?
Its TGI is 65.7 µM.

What about the GI50 [12] of the same molecule?
The GI50 was 3.13 µM.

What about the TGI [12] of the same molecule?
The TGI was 10.7 µM.

What about the GI50 [13] of the same molecule?
The GI50 was 5.77 µM.

And the TGI [13]?
Its TGI is 21 µM.

And the GI50 [14]?
The GI50 was 10.9 µM.

And the TGI [14]?
Its TGI is 26.1 µM.

What about the GI50 [15] of the same molecule?
The GI50 was 3.14 µM.

What about the TGI [15] of the same molecule?
Its TGI is 11.7 µM.

And the GI50 [16]?
Its GI50 is 2.12 µM.

And the TGI [16]?
Its TGI is 6.91 µM.

What about the GI50 [17] of the same molecule?
The GI50 was 2.37 µM.

What about the TGI [17] of the same molecule?
The TGI was 6.69 µM.

And the GI50 [18]?
The GI50 was 12.9 µM.

What about the TGI [18] of the same molecule?
The TGI was 29.1 µM.

And the GI50 [19]?
The GI50 was 4.11 µM.

What about the TGI [19] of the same molecule?
Its TGI is 15.5 µM.

And the GI50 [20]?
The GI50 was 3.87 µM.

And the TGI [20]?
Its TGI is 15.3 µM.

What about the GI50 [21] of the same molecule?
Its GI50 is 8.56 µM.

What about the TGI [21] of the same molecule?
Its TGI is 25.7 µM.

What about the GI50 [22] of the same molecule?
Its GI50 is 2.88 µM.

What about the TGI [22] of the same molecule?
The TGI was 10 µM.

And the GI50 [23]?
Its GI50 is 4.97 µM.

What about the TGI [23] of the same molecule?
Its TGI is 18.6 µM.

What about the GI50 [24] of the same molecule?
The GI50 was 2.76 µM.

And the TGI [24]?
Its TGI is 9.8 µM.

And the GI50 [25]?
The GI50 was 2.95 µM.

What about the TGI [25] of the same molecule?
The TGI was 14.2 µM.

And the GI50 [26]?
Its GI50 is 3.21 µM.

And the TGI [26]?
The TGI was 12.2 µM.

What about the GI50 [27] of the same molecule?
The GI50 was 9.81 µM.

And the TGI [27]?
Its TGI is 22.2 µM.

What about the GI50 [28] of the same molecule?
Its GI50 is 8.46 µM.

And the TGI [28]?
The TGI was 21.9 µM.

What about the GI50 [29] of the same molecule?
The GI50 was 4.63 µM.

What about the TGI [29] of the same molecule?
The TGI was 19.2 µM.

And the GI50 [30]?
The GI50 was 2.66 µM.

And the TGI [30]?
The TGI was 11.5 µM.

And the GI50 [31]?
The GI50 was 2.98 µM.

What about the TGI [31] of the same molecule?
Its TGI is 12.2 µM.

What about the GI50 [32] of the same molecule?
Its GI50 is 2.1 µM.

What about the TGI [32] of the same molecule?
Its TGI is 4.38 µM.

What about the GI50 [33] of the same molecule?
The GI50 was 3.31 µM.

And the TGI [33]?
The TGI was 11.1 µM.

What about the GI50 [34] of the same molecule?
The GI50 was 3.28 µM.

And the TGI [34]?
The TGI was 10.1 µM.

What about the GI50 [35] of the same molecule?
Its GI50 is 2.06 µM.

What about the TGI [35] of the same molecule?
The TGI was 4.67 µM.

And the GI50 [36]?
Its GI50 is 13 µM.

And the TGI [36]?
The TGI was 42.9 µM.

What about the GI50 [37] of the same molecule?
The GI50 was 3.74 µM.

And the TGI [37]?
Its TGI is 15.1 µM.

And the GI50 [38]?
Its GI50 is 3.79 µM.

And the TGI [38]?
The TGI was 16.6 µM.

And the GI50 [39]?
The GI50 was 9.01 µM.

What about the TGI [39] of the same molecule?
Its TGI is 24 µM.

What about the GI50 [40] of the same molecule?
The GI50 was 4.73 µM.

What about the TGI [40] of the same molecule?
Its TGI is 18.1 µM.

What about the GI50 [41] of the same molecule?
The GI50 was 5.01 µM.

And the TGI [41]?
Its TGI is 17.7 µM.

And the GI50 [42]?
The GI50 was 3.24 µM.

And the TGI [42]?
Its TGI is 12.1 µM.

What about the GI50 [43] of the same molecule?
The GI50 was 6.32 µM.

What about the TGI [43] of the same molecule?
Its TGI is 19.1 µM.

And the GI50 [44]?
Its GI50 is 15.5 µM.

What about the TGI [44] of the same molecule?
Its TGI is 30.1 µM.

And the GI50 [45]?
Its GI50 is 5.42 µM.

What about the TGI [45] of the same molecule?
The TGI was 17.4 µM.

What about the GI50 [46] of the same molecule?
The GI50 was 10.8 µM.

And the TGI [46]?
Its TGI is 23.1 µM.

What about the GI50 [47] of the same molecule?
Its GI50 is 4.2 µM.

What about the TGI [47] of the same molecule?
Its TGI is 17.9 µM.

What about the GI50 [48] of the same molecule?
The GI50 was 4.62 µM.

What about the TGI [48] of the same molecule?
Its TGI is 18.7 µM.

What about the GI50 [49] of the same molecule?
Its GI50 is 4.06 µM.

What about the TGI [49] of the same molecule?
The TGI was 15.7 µM.

And the GI50 [50]?
The GI50 was 2 µM.

What about the TGI [50] of the same molecule?
The TGI was 7.32 µM.

What about the GI50 [51] of the same molecule?
The GI50 was 2.72 µM.

What about the TGI [51] of the same molecule?
The TGI was 9.16 µM.

What about the GI50 [52] of the same molecule?
The GI50 was 2.8 µM.

What about the TGI [52] of the same molecule?
The TGI was 10.3 µM.

What about the GI50 [53] of the same molecule?
Its GI50 is 10.9 µM.

What about the TGI [53] of the same molecule?
Its TGI is 30.8 µM.

And the GI50 [54]?
Its GI50 is 6.75 µM.

And the TGI [54]?
Its TGI is 22.9 µM.

And the GI50 [55]?
The GI50 was 2.03 µM.

What about the TGI [55] of the same molecule?
The TGI was 4.07 µM.

What about the GI50 [56] of the same molecule?
The GI50 was 13 µM.

What about the TGI [56] of the same molecule?
The TGI was 27.6 µM.

And the GI50 [57]?
The GI50 was 3.72 µM.

And the TGI [57]?
Its TGI is 15.4 µM.

What about the GI50 [58] of the same molecule?
Its GI50 is 1.46 µM.

What about the TGI [58] of the same molecule?
Its TGI is 6.65 µM.

Which results are given for `CCC1=Cc2c(OC)cccc2OC12C=Cc1c(OC)cccc1O2` (stereo not drawn)?
GI50 [28]: 0.951 µM; TGI [28]: > 100 µM
